According to patent publication US20220041647A1, “ESTRA-1,3,5(10)-TRIENE COMPOUNDS CONDENSED IN POSITION 16(17) WITH A PYRAZOLE RING AS INHIBITORS OF 17-HSD1” (FORENDO PHARMA LTD, priority 2018, published 2022):

Legend:
[1] = target: T1, recombinant human 17β-HSD2 (Homo sapiens, UniProt P37059); experiment: Inhibition of recombinant human 17β-HSD2 (estradiol to estrone conversion, HPLC/radioactivity); type: biochemical; conditions: compound 1 μM; 50 nM estradiol, 1 mM NADH, 30 min RT
T1 construct: made in house; host or cells: Sd9 (Sf9) insect cells, baculovirus (Bac to Bac Expression System)
T1 sequence (P37059 1-387): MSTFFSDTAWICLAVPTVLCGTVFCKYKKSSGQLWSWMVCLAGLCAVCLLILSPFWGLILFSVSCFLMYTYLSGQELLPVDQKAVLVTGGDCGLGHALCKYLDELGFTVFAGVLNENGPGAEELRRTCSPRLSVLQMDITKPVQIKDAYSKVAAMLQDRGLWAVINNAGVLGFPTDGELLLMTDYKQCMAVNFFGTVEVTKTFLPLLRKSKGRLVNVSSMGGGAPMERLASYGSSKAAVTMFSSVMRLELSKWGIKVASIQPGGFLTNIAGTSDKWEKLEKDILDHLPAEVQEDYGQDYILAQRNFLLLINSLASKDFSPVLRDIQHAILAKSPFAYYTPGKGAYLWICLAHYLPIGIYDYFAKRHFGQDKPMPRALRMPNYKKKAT
Method in brief: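 Membrane extract of Sf9 cells expressing recombinant human 17β-HSD2 (4 μg/ml), in 20 mM KH2PO4 pH 8.5 with 50 nM ^3H-spiked estradiol and 1 mM NADH, 30 min at RT, 1% DMSO. Compound at 1 μM or 0.1 μM; estrone formation by HPLC radioactivity, % inhibition relative to uninhibited conversion.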

[2] = Metabolic stability assay, human hepatocyte incubations; type: in vitro ADME; conditions: compound 1 μM, human hepatocytes, 0-60 min at 37° C.; read-out: Human hepatocytes MetStab T½ min
Procedure: Compound stock solutions of the invention were prepared in […]. Final concentration of DMSO was adjusted to 1% in all samples. The in vitro metabolic stability of the compounds of the invention was determined for exemplified compounds using human hepatocyte incubations; study compounds at concentration of 1 μM were incubated 0, 10, 20, 40 and 60 min at 37° C. Samples were collected at all time points and compounds were detected by LC-MS/MS analysis. The percent compound remaining is calculated by comparing the peak area of the parent compound at each time point to time zero. In vitro metabolic stability was determined as half life (T1/2), which was determined by regression analysis of the percent parent disappearance vs. time curve.

[3] = target: T2, recombinant human 17β-HSD1 (Homo sapiens, UniProt P14061); experiment: Inhibition of recombinant human 17β-HSD1 (estrone to estradiol conversion, HPLC/radioactivity); type: biochemical; conditions: compound 100 nM; 30 nM estrone, 1 mM NADPH, 30 min RT
T2 construct: made in house; host or cells: Sd9 (Sf9) insect cells, baculovirus (Bac to Bac Expression System)
T2 sequence (P14061 1-328): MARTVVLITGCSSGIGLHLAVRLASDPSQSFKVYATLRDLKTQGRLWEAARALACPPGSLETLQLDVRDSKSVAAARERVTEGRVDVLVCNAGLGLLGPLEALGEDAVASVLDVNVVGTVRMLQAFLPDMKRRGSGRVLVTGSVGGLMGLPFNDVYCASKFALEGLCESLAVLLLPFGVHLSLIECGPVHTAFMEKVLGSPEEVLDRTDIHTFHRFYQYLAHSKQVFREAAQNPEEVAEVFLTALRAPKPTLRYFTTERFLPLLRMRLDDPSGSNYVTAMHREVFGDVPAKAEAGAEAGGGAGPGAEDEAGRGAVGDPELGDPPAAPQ
Method in brief: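 Microsomal human 17β-HSD1 from Sf9 baculovirus (1 μg/ml) was incubated 30 min at RT in 20 mM KH2PO4 pH 7.4 with 30 nM ^3H-estrone, 1 mM NADPH and inhibitor at 1 μM or 0.1 μM (1% DMSO). Estrone and estradiol were separated by HPLC with radioactivity detection. % inhibition = 100 − % conversion relative to uninhibited control.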

`C[C@]12CCC3c4cccc(F)c4CCC3C1[C@H](CCC(=O)Nc1ncc(F)cc1F)c1c[nH]nc12` (stereo partly drawn) [Compound 9, N-(3,5-difluoropyridin-2-yl)-3-((8aS,12S)-3-fluoro-8a-methyl-1,2,6b,7,8,8a,10,12,12a,12b-decahydronaphtho[2′,1′:4,5]indeno[1,2-c]pyrazol-12-yl)propanamide] showed an inhibition at 1 µM [1] of 3%, a half-life at 1 μM [2] of 61 min and an inhibition at 0.1 µM [3] of 82%.
For `C[C@]12CCC3c4cccc(F)c4CCC3C1[C@H](CCC(=O)Nc1cc(F)ccn1)c1c[nH]nc12` (stereo partly drawn) [Compound 15, 3-((8aS,12S)-3-fluoro-8a-methyl-1,2,6b,7,8,8a,10,12,12a,12b-decahydronaphtho[2′,1′:4,5]indeno[1,2-c]pyrazol-12-yl)-N-(4-fluoropyridin-2-yl)propanamide], the inhibition at 1 µM [1] was 6%, the half-life at 1 μM [2] was 43 min and the inhibition at 0.1 µM [3] was 96%.
Work on `C[C@]12CCC3c4cccc(F)c4CCC3C1[C@H](CCC(=O)Nc1ccccn1)c1c[nH]nc12` (stereo partly drawn) [Compound 18, 3-((8aS,12S)-3-fluoro-8a-methyl-1,2,6b,7,8,8a,10,12,12a,12b-decahydronaphtho[2′,1′:4,5]indeno[1,2-c]pyrazol-12-yl)-N-(pyridin-2-yl)propanamide] yielded an inhibition at 1 µM [1] of 1%, a half-life at 1 μM [2] of 41 min and an inhibition at 0.1 µM [3] of 91%.
Compound `COc1ccc(NC(=O)CC[C@@H]2c3c[nH]nc3[C@@]3(C)CCC4c5cccc(F)c5CCC4C23)nc1` (stereo partly drawn) [Compound 21, 3-((8aS,12S)-3-fluoro-8a-methyl-1,2,6b,7,8,8a,10,12,12a,12b-decahydronaphtho[2′,1′:4,5]indeno[1,2-c]pyrazol-12-yl)-N-(5-methoxypyridin-2-yl)propanamide] has an inhibition at 1 µM [1] of 4%, a half-life at 1 μM [2] of 40 min and an inhibition at 0.1 µM [3] of 97%.
With `C[C@]12CCC3c4cccc(F)c4CCC3C1[C@H](CCC(=O)N1CCNC(=O)C1)c1c[nH]nc12` (stereo partly drawn) [Compound 24, 4-(3-((8aS,12S)-3-fluoro-8a-methyl-1,2,6b,7,8,8a,10,12,12a,12b-decahydronaphtho[2′,1′:4,5]indeno[1,2-c]pyrazol-12-yl)propanoyl)piperazin-2-one] the inhibition at 1 µM [1] was 1%, the half-life at 1 μM [2] was 33 min and the inhibition at 0.1 µM [3] was 83%.
`C[C@]12CCC3c4cccc(F)c4CCC3C1[C@H](CCC(=O)Nc1cc3c([nH]c1=O)CCCC3)c1c[nH]nc12` (stereo partly drawn) [Compound 30, 3-((8aS,12S)-3-fluoro-8a-methyl-1,2,6b,7,8,8a,10,12,12a,12b-decahydronaphtho[2′,1′:4,5]indeno[1,2-c]pyrazol-12-yl)-N-(2-oxo-1,2,5,6,7,8-hexahydroquinolin-3-yl)propanamide] showed an inhibition at 1 µM [1] of 3%, a half-life at 1 μM [2] of 117 min and an inhibition at 0.1 µM [3] of 95%.
For `CN(C)C(=O)c1ccc(NC(=O)CC[C@@H]2c3c[nH]nc3[C@@]3(C)CCC4c5cccc(F)c5CCC4C23)nc1` (stereo partly drawn) [Compound 33, 6-(3-((8aS,12S)-3-fluoro-8a-methyl-1,2,6b,7,8,8a,10,12,12a,12b-decahydronaphtho[2′,1′:4,5]indeno[1,2-c]pyrazol-12-yl)propanamido)-N,N-dimethylnicotinamide], the inhibition at 1 µM [1] was 8%, the half-life at 1 μM [2] was 107 min and the inhibition at 0.1 µM [3] was 95%.
`CC(C)c1ccc(NC(=O)CC[C@@H]2c3c[nH]nc3[C@@]3(C)CCC4c5cccc(F)c5CCC4C23)nc1` (stereo partly drawn) [Compound 36, 3-((8aS,12S)-3-fluoro-8a-methyl-1,2,6b,7,8,8a,10,12,12a,12b-decahydronaphtho[2′,1′:4,5]indeno[1,2-c]pyrazol-12-yl)-N-(5-isopropylpyridin-2-yl)propanamide] showed an inhibition at 1 µM [1] of 8%, a half-life at 1 μM [2] of 37 min and an inhibition at 0.1 µM [3] of 100%.
Compound `C[C@]12CCC3c4cccc(F)c4CCC3C1[C@H](CCC(=O)Nc1ccc(N3CCOCC3)cn1)c1c[nH]nc12` (stereo partly drawn) [Compound 39, 3-((8aS,12S)-3-fluoro-8a-methyl-1,2,6b,7,8,8a,10,12,12a,12b-decahydronaphtho[2′,1′:4,5]indeno[1,2-c]pyrazol-12-yl)-N-(5-morpholinopyridin-2-yl)propanamide] has an inhibition at 1 µM [1] of 9%, a half-life at 1 μM [2] of 67 min and an inhibition at 0.1 µM [3] of 91%.
With `CN1CCN(c2ccc(NC(=O)CC[C@@H]3c4c[nH]nc4[C@@]4(C)CCC5c6cccc(F)c6CCC5C34)nc2)CC1` (stereo partly drawn) [Compound 42, 3-((8aS,12S)-3-fluoro-8a-methyl-1,2,6b,7,8,8a,10,12,12a,12b-decahydronaphtho[2′,1′:4,5]indeno[1,2-c]pyrazol-12-yl)-N-(5-(4-methylpiperazin-1-yl)pyridin-2-yl)propanamide] the inhibition at 1 µM [1] was 34%, the half-life at 1 μM [2] was 47 min and the inhibition at 0.1 µM [3] was 91%.
With `COc1ccnc(NC(=O)CC[C@@H]2c3c[nH]nc3[C@@]3(C)CCC4c5cccc(F)c5CCC4C23)c1` (stereo partly drawn) [Compound 48, 3-((8aS,12S)-3-fluoro-8a-methyl-1,2,6b,7,8,8a,10,12,12a,12b-decahydronaphtho[2′,1′:4,5]indeno[1,2-c]pyrazol-12-yl)-N-(4-methoxypyridin-2-yl)propanamide] the inhibition at 1 µM [1] was 5%, the half-life at 1 μM [2] was 34 min and the inhibition at 0.1 µM [3] was 91%.
For `C[C@]12CCC3c4cccc(F)c4CCC3C1[C@H](CCC(=O)Nc1cnccn1)c1c[nH]nc12` (stereo partly drawn) [Compound 51, 3-((8aS,12S)-3-fluoro-8a-methyl-1,2,6b,7,8,8a,10,12,12a,12b-decahydronaphtho[2′,1′:4,5]indeno[1,2-c]pyrazol-12-yl)-N-(pyrazin-2-yl)propanamide], the inhibition at 1 µM [1] was 1%, the half-life at 1 μM [2] was 31 min and the inhibition at 0.1 µM [3] was 90%.
For `Cn1ccc(NC(=O)CC[C@@H]2c3c[nH]nc3[C@@]3(C)CCC4c5cccc(F)c5CCC4C23)n1` (stereo partly drawn) [Compound 54, 3-((8aS,12S)-3-fluoro-8a-methyl-1,2,6b,7,8,8a,10,12,12a,12b-decahydronaphtho[2′,1′:4,5]indeno[1,2-c]pyrazol-12-yl)-N-(1-methyl-1H-pyrazol-3-yl)propanamide], the inhibition at 1 µM [1] was 8%, the half-life at 1 μM [2] was 68 min and the inhibition at 0.1 µM [3] was 87%.
Work on `C[C@]12CCC3c4cccc(F)c4CCC3C1[C@H](CCC(=O)N1Cc3ccccc3C1)c1c[nH]nc12` (stereo partly drawn) [Compound 57, 3-((8aS,12S)-3-fluoro-8a-methyl-1,2,6b,7,8,8a,10,12,12a,12b-decahydronaphtho[2′,1′:4,5]indeno[1,2-c]pyrazol-12-yl)-1-(isoindolin-2-yl)propan-1-one] yielded an inhibition at 1 µM [1] of 16%, a half-life at 1 μM [2] of 58 min and an inhibition at 0.1 µM [3] of 92%.
`COc1ccc(NC(=O)CC[C@@H]2c3c[nH]nc3[C@@]3(C)CCC4c5ccc(F)cc5CCC4C23)nc1` (stereo partly drawn) [Compound 84, 3-((8aS,12S)-4-fluoro-8a-methyl-1,2,6b,7,8,8a,10,12,12a,12b-decahydronaphtho[2′,1′:4,5]indeno[1,2-c]pyrazol-12-yl)-N-(5-methoxypyridin-2-yl)propanamide] showed an inhibition at 1 µM [1] of 2%, a half-life at 1 μM [2] of 148 min and an inhibition at 0.1 µM [3] of 87%.
In the case of `CC(C)c1ccc(NC(=O)CC[C@@H]2c3c[nH]nc3[C@@]3(C)CCC4c5ccc(F)cc5CCC4C23)nc1` (stereo partly drawn) [Compound 87, 3-((8aS,12S)-4-fluoro-8a-methyl-1,2,6b,7,8,8a,10,12,12a,12b-decahydronaphtho[2′,1′:4,5]indeno[1,2-c]pyrazol-12-yl)-N-(5-isopropylpyridin-2-yl)propanamide], the inhibition at 1 µM [1] is reported as 6%, the half-life at 1 μM [2] is reported as 127 min and the inhibition at 0.1 µM [3] is reported as 87%.
`COc1ccnc(NC(=O)CC[C@@H]2c3c[nH]nc3[C@@]3(C)CCC4c5ccc(F)cc5CCC4C23)c1` (stereo partly drawn) [Compound 90, 3-((8aS,12S)-4-fluoro-8a-methyl-1,2,6b,7,8,8a,10,12,12a,12b-decahydronaphtho[2′,1′:4,5]indeno[1,2-c]pyrazol-12-yl)-N-(4-methoxypyridin-2-yl)propanamide] gave an inhibition at 1 µM [1] of 3%, a half-life at 1 μM [2] of 77 min and an inhibition at 0.1 µM [3] of 70%.
